Laboratory results: a melting point compilation (Tetko et al.; mined from patent text by program, amines drawn as free bases though some values may be those of a salt)

Row | Compound | melting point [°C]
1 | CCc1cn(C(C)C(=O)N(C)C)nc1-c1ccccc1 (configuration not stated) | 73.5 to 75
2 | CC(C)(C)c1cc(-c2n[nH]c(=O)o2)cc(C(C)(C)C)c1O | 246
3 | CC(=O)OC(C)c1ccccc1CS(N)(=O)=O (configuration not stated) | 135 to 140
4 | CCCCCC(C(=O)O)c1cccc(Oc2ccccc2C)c1O (configuration not stated) | 113 to 114
5 | CC(C)(C)OC(=O)c1ncn2c1CN(C(=O)N1CCOCC1)c1cc(F)ccc1-2 | 196
6 | CCN(CC)C(=O)c1ncccc1OC(=S)N(CC)CC | 70 to 72
7 | O=c1c2ccc(-c3nnn[nH]3)cc2[nH]c2ccc(-c3nnn[nH]3)cc12 | > 350
8 | COc1ccc(S(=O)(=O)N(CC(N)=O)c2ccc(Cl)cc2Cc2c(Cl)cccc2Cl)cc1OC | 195
9 | COC(=O)c1ccccc1Sc1cccc(O)c1 | 77 to 78.5
10 | COc1c(Cl)cc(C(=O)O)c2cccc(S(=O)(=O)N(C)C)c12 | 127 to 137
11 | CC(C)(C)[Si](C)(C)Oc1ccc(CON2C(=O)c3ccccc3C2=O)cc1 | 76 to 77
12 | Cc1ccc(Cl)c(Nc2ccccc2C(=O)N(O)Cc2ccccc2)c1Cl | 133 to 135
13 | BrCc1cc(I)cc(I)c1I | 120 to 121
14 | O=C(NCC(F)F)/C(=C/c1ccc(OC(F)(F)F)cc1)NC(=O)c1ccc(OCCC(F)(F)F)cc1 | 142 to 143
15 | Cc1cc(Cl)nn2cnnc12 | 134 to 136
16 | Oc1cccc(/C=C/c2nc(-c3ccccc3)cs2)c1 | 150 to 151
17 | CC(C)n1nc(-c2c(-c3ccccc3)nn3ccc(OCCN4CC4)cc23)ccc1=O | 159 to 160
18 | C[C@H](N[C@H]1CC[C@@H](c2ccccc2)CC1)[C@@H](O)c1ccc(O)cc1 | 199 to 212
19 | CC(C#N)c1cccc(C(=O)c2ccccc2)c1 (configuration not stated) | 88 to 94
20 | CCOC(=O)c1c[nH]c(=O)s1 | 127
21 | CC(=O)N(C)C(c1ccc(F)cc1)c1ccc(F)cc1 | 99 to 100
22 | Cc1c(-c2ccccc2)sc2nc(N3CCOCC3)[nH]c(=O)c12 | 300 to 320
23 | CC(C)c1oc(-c2ccccc2)c(-c2ccc(F)c(Oc3ccccc3)c2)c1C=O | 137
24 | Clc1ccc(CC(OC2CCCC(Cn3ccnc3)O2)c2ccccc2)c(Cl)c1 (configuration not stated) | 118 to 120
25 | Cn1c(-c2ccc(-n3cnc4ccccc43)cc2)cnc1[C@H](Cc1ccccn1)N(C=O)c1cc2ccccc2[nH]1 | 233 to 237
26 | Cc1oc(-c2ccccc2)nc1COc1ccc(C=C2SC(=O)NC2=O)cc1 | 225 to 226

Row | Compound | melting point [°C]
27 | O=C(O)c1cn2c3c(cc(F)cc3c1=O)CCC2C(F)(F)F (configuration not stated) | 295 to 297
28 | COc1ccc(-c2cc(F)cc3c2NC(CN)CO3)c(Cl)c1 (configuration not stated) | 84
29 | O=S(=O)(CCNc1ccccc1)NCCCOc1cccc(CN2CCCCC2)c1 | 112 to 115
30 | CCCCCCCNC(=O)Nc1ccc(N)cc1C(=O)NC1CCN(C(c2ccccc2)c2ccccc2)CC1 | 190 to 192
31 | O=CN(Cc1ccccc1)Cc1ccccc1 | 53 to 54.5
32 | S=C1CN=C(c2ccccn2)c2cc(Cl)ccc2N1 | 217 to 218
33 | ON=C(c1ccc(Cl)cc1)C1(n2cncn2)CC1 | 186 to 218
34 | OCc1cccc2c1CCc1ccccc1-2 | 108 to 110
35 | CCOC(=O)C1=C(CO)NC(SC)=NC1c1ccccc1SC (configuration not stated) | 151 to 153
36 | O=C(O)C(c1ccccc1)N1CC(N2C(=O)c3ccccc3C2=O)C1=O (configuration not stated) | 176 to 183
37 | COc1cccc(Oc2cccc(Oc3ccc4c(c3)OCO4)c2C(=O)O)c1 | 146 to 148
38 | CC1(C)OCC(Cn2c(=O)sc3c(=O)[nH]c(N)nc32)O1 (configuration not stated) | 222 to 225
39 | CN(C)c1ccnc2c(NC(=O)c3c(Cl)cccc3Cl)cccc12 | 215 to 216
40 | CCCOc1nc2sc(Cl)cc2c(=S)n1CCC | 81 to 83
41 | CNC(=O)C(=N[C@@H](C)c1ccccc1)C(C)(C)C | 120
42 | O=C1COC2CCCc3nc4ccccc4c(c32)N1 (configuration not stated) | 173 to 175
43 | CC(=O)Oc1c(C(C)(C)C)cc(O)c(C=O)c1C(C)(C)C | 79
44 | COC(=O)C1=C(C)NC(C)=C(C(=O)OCCc2ccc(O)cc2)C1c1cccc([N+](=O)[O-])c1 (configuration not stated) | 107 to 109
45 | COC(=O)c1ccc(-c2cccc(N)c2)cc1 | 145 to 148
46 | CCC1(C)CC2(C(=O)N(C)C(=O)N2C)C(C)C(C)(CC)N1C (configuration not stated) | 77 to 88
47 | CC(C)c1csc(/C=C/c2cccc(NC(=O)Cc3ccccc3C(=O)O)c2)n1 | 203 to 204
48 | O=C(OC(c1ccc(Cl)cc1Cl)C(Oc1ccc(Cl)cc1)n1cncn1)c1ccc(Cl)cc1Cl (configuration not stated) | 132 to 135
49 | Cc1nc2ccc3c(c2nc1C)OC(CN1CC=C(c2c[nH]c4ccc(F)cc24)CC1)CO3 (configuration not stated) | 138 to 141
50 | OCCOc1cn(-c2ccc(F)cc2)c2cc(Cl)ccc12 | 97 to 98
51 | COc1cc2ncc(C#N)c(Nc3ccc(F)c(Cl)c3)c2cc1NC(=O)C=CCN(CC(C)O)CC(C)O (configuration not stated) | 122 to 125
52 | CCOC(=O)c1cc(CN)c[nH]1 | 78 to 79

Row | Compound | melting point [°C]
53 | N=c1cc(NCCCCc2c[nH]cn2)ccs1 | 209 to 211
54 | CCCc1nc2c(N)nc3ccccc3c2n1CCCC(C)N(OC)C(=O)NC1CCCC1 (configuration not stated) | 182 to 184
55 | COc1cccc2c1C(c1ccccc1Cl)NC(=O)C2 (configuration not stated) | 230 to 233
56 | COC(=O)c1ccc(-c2nc3[nH]c4ccccc4c3c(=O)[nH]2)cc1 | > 250
57 | ClCc1cn2c(n1)CN=C(c1ccccn1)c1cc(Cl)ccc1-2 | 161
58 | CCN(C(=O)Cl)c1ccc2c(c1)OCO2 | 68 to 69
59 | C#CCc1c(C)nc2c(NCc3c(C)cccc3NC(=S)NC(=O)c3ccccc3)cccn12 | 165 to 166
60 | CCCCCCCCCCCCCCCCSc1cc(O)c(Sc2nnnn2-c2ccccc2)cc1O | 129 to 131
61 | C=CCNC(=O)COc1ccc(C2=NNC(=O)CC2)cc1Cl | 145 to 146
62 | CCCCOc1ccc(C(=O)N[C@@H]2CCc3cccc(C4CCN(C)CC4)c3C2)cc1 | 162 to 164
63 | COc1ccc(Cl)cc1C(=O)NCCc1ccc(C(C)=CCC(=O)O)cc1 | 180 to 183
64 | S=C(NCCCN1CCN(Cc2ccc(Cl)cc2)CC1)Nc1ccccc1 | 155 to 156
65 | COC(=O)C1=C(C)Nc2ccccc2SC1c1ccccc1 (configuration not stated) | 154 to 156
66 | Cc1c(/C=C/c2cccc([N+](=O)[O-])c2C)cccc1[N+](=O)[O-] | 246
67 | COC(=O)c1cc2ncnn2nc1NCCCN1CCC(OC(c2ccccc2)c2ccccc2)CC1 | 120 to 122
68 | COc1ccc(-c2n[nH]c(N=CN(C)C)c2C#N)cc1 | 169 to 171
69 | O=S(=O)(CC1CC1)c1nc(-c2ccc(F)cc2)c(-c2ccc(F)cc2)[nH]1 | 251
70 | COc1ccc2cc(C(=O)CNC(=O)c3cn(C)c4ccccc34)ccc2c1 | 177 to 180
71 | CNC(=O)c1cc(NCc2c(C)cccc2C)c2nc(C)n(C)c2c1 | 252 to 253
72 | O=C(Br)c1ccc(F)c(Br)c1 | 34.8 to 35.8
73 | CCOC(=O)COc1cc(F)c(C)cc1C(=O)NCc1ccc(Br)cc1F | 128 to 129
74 | O=C1Nc2ccc(-c3ccc(Cl)cc3)cc2C1=O | 246 to 252
75 | O=C1NC(=O)C(Cc2ccc(OCCNc3nc4ccccc4o3)cc2)S1 (configuration not stated) | 202 to 203
76 | CCCOCCN(CC)c1ccc(-c2ccc3c(c2)C=C(C(=O)Nc2ccc(CN(C)C4CCOCC4)cc2)CCS3(=O)=O)cc1 | 172 to 175
77 | COc1ccc(CNc2nc(Cl)ccc2C(=O)O)cc1Cl | 184 to 186
78 | COc1ccn2nc(-c3ccccc3)c(-c3ccc(=O)n(C4CCCN(C)C4)n3)c2c1 (configuration not stated) | 179 to 180

Row | Compound | melting point [°C]
79 | CCc1c(OC)nc2nc(-c3nnc(C(F)(F)F)o3)cn2c1C | 210 to 211
80 | Nc1nc2cc3nc(NC(=O)CCl)sc3cc2s1 | 300
81 | CCOC(=O)c1c(-c2ccc(OC)c(OC)c2)c2cc(Cl)ccc2n(C)c1=O | 104 to 106
82 | O=C1CC2CCc3ccccc3C2=NN1c1ccccc1O (configuration not stated) | 221 to 222
83 | CC(C)N(CCCC(=NNC(N)=S)c1ccccc1)C(=O)c1ccccc1 | 107 to 109
84 | O=S(=O)(CCCl)c1ccc(Cl)cc1 | 91
85 | CC(=C1SC(=S)NC1=O)c1ccccc1C(=O)O | 193 to 195
86 | O=[N+]([O-])c1cccc(-c2cc(C(O)c3ccnc(Cl)c3)cc3ccoc23)c1 (configuration not stated) | 178 to 180
87 | O=C1CCCc2c(-c3ccncc3)sc(-c3ccncc3)c21 | 157 to 160
88 | OC(CCN1CCN(c2ccc(F)cc2)CC1)c1cnn2c1CCCC2 (configuration not stated) | 130 to 131
89 | CC1Cc2c(n(Cc3ccc(Cl)cc3)c3ccc(F)cc23)C(CC(=O)O)C1 (configuration not stated) | 205 to 206
90 | OCc1conc1-c1ccc(Cl)c(F)c1 | 124 to 125
91 | CCOc1cccc(C(c2ccccc2Cl)n2nc(C(=O)O)c3c2-c2ccc(OCc4cncnc4)cc2CC3)c1 (configuration not stated) | 234 to 235
92 | COC(=O)CCc1cc2cc(F)c(Cl)cc2[nH]1 | 138 to 139
93 | O=C(O)CCNC(=O)c1ccccc1SSc1ccccc1C(=O)NCCC(=O)O | 201 to 203
94 | COc1ccc2cc(OCc3ccccc3)c(C(=O)O)cc2c1 | 177 to 179
95 | Nc1ncnc2c1c(-c1ccc(Oc3ccccc3)cc1)cn2CC(=O)NCCOCCO | 145 to 147
96 | FC(F)(c1ccccc1)C(F)(F)c1ccccc1CBr | 70 to 77
97 | COC(=O)c1cc(N)c(N2CCCCC2)c(N)c1 | 133 to 134
98 | Cc1cccc(C2CCCN2S(=O)(=O)c2ccc(Cl)cc2)c1 (racemic) | 78
99 | COc1cc2c(cc1C(F)(F)F)N(C(=O)Nc1ccc(Cl)c(-c3cccnc3)c1)CC2 | 210 to 213
100 | COc1cc(OCC(F)(F)C(F)F)nc(Oc2cc(C(F)(F)F)nn2C)c1 | 73 to 74
101 | CCC(C)c1ccc(-n2c(-c3cc(C)c(OCCO)c(C)c3)nc3c(OC)cccc3c2=O)cc1 (configuration not stated) | 158 to 159
102 | CC1(C)NC(=O)C2CN(CCCC(c3ccc(F)cc3)c3ccc(F)cc3)CCN21 (configuration not stated) | 148
